{"source": "PubChem BioAssay AID2060882", "about": "(Molecular Pharmacology Branch, DTP, NCI, 2025);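 note: spheroids exposed to compound for seven days before readout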;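 for viability, T/C: 100% = DMSO vehicle control wells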", "test_system": "898857-211-R-J1-PDC complex spheroids, growth % test/control", "experiment": "Anticancer human tumor 898857-211-R-J1-PDC patient-derived melanoma cell line growth inhibition [RAS]", "settings": "for viability, T/C: stronger effect = lower value", "method_in_brief": "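Multi-cell-type spheroids: tumor cells plus HUVEC endothelial cells and mesenchymal stem cells. RAS-pathway inhibitors were combined with targeted agents, each dosed in half-log steps down from clinical Cmax, or from 10 microM when Cmax was unknown.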", "data": [{"smiles": "Cc1nc(N2CCC3(CC2)COC(C)C3N)c(CO)nc1Sc1ccnc(N)c1Cl", "note": "(centres undefined)", "values": [{"measurement": "viability, T/C", "setting": "compound 0.0316 µM", "result": "100% [middle of 4 runs]"}, {"measurement": "viability, T/C", "setting": "compound 0.1 µM", "result": "89.5% [middle of 4 runs]"}, {"measurement": "viability, T/C", "setting": "compound 0.316 µM", "result": "101% [middle of 4 runs]"}, {"measurement": "viability, T/C", "setting": "compound 1 µM", "result": "95.5% [middle of 4 runs]"}, {"measurement": "viability, T/C", "setting": "compound 3.16 µM", "result": "99.2% [middle of 4 runs]"}, {"measurement": "viability, T/C", "setting": "compound 10 µM", "result": "93.4% [middle of 4 runs]"}, {"measurement": "IC50", "setting": "curve of compound", "result": "> 10", "unit": "µM"}]}, {"smiles": "CC1(O)CCCC1n1c(=O)c(C(F)F)cc2cnc(NC3CCN(S(C)(=O)=O)CC3)nc21", "note": "(centres undefined) + C#Cc1c(F)ccc2cc(O)cc(-c3ncc4c(N5CC6CCC(C5)N6)nc(OCC56CCCN5CC(F)C6)nc4c3F)c12", "values": [{"measurement": "IC50", "setting": "curve of first compound, second compound 0.0316 µM", "result": 0.584, "unit": "µM"}, {"measurement": "IC50", "setting": "curve of first compound, second compound 0.1 µM", "result": 0.129, "unit": "µM"}, {"measurement": "IC50", "setting": "curve of first compound, second compound 0.316 µM", "result": 0.334, "unit": "µM"}, {"measurement": "IC50", "setting": "curve of first compound, second compound 1 µM", "result": 0.529, "unit": "µM"}, {"measurement": "IC50", "setting": "curve of first compound, second compound 3.16 µM", "result": 0.321, "unit": "µM"}, {"measurement": "IC50", "setting": "curve of first compound, second compound 10 µM", "result": "< 0.0316", "unit": "µM"}, {"measurement": "viability, T/C", "setting": "second compound 0.0316 µM, first compound 0.0316 µM", "result": 66.1, "unit": "%"}, {"measurement": "viability, T/C", "setting": "second compound 0.0316 µM, first compound 0.1 µM", "result": 53.6, "unit": "%"}, {"measurement": "viability, T/C", "setting": "second compound 0.0316 µM, first compound 0.316 µM", "result": 44.3, "unit": "%"}, {"measurement": "viability, T/C", "setting": "second compound 0.0316 µM, first compound 1 µM", "result": 49.5, "unit": "%"}, {"measurement": "viability, T/C", "setting": "second compound 0.0316 µM, first compound 3.16 µM", "result": 43.1, "unit": "%"}, {"measurement": "viability, T/C", "setting": "second compound 0.0316 µM, first compound 10 µM", "result": 19.9, "unit": "%"}, {"measurement": "viability, T/C", "setting": "second compound 0.1 µM, first compound 0.0316 µM", "result": 95, "unit": "%"}, {"measurement": "viability, T/C", "setting": "second compound 0.1 µM, first compound 0.1 µM", "result": 52.6, "unit": "%"}, {"measurement": "viability, T/C", "setting": "second compound 0.1 µM, first compound 0.316 µM", "result": 38.7, "unit": "%"}, {"measurement": "viability, T/C", "setting": "second compound 0.1 µM, first compound 1 µM", "result": 43.4, "unit": "%"}, {"measurement": "viability, T/C", "setting": "second compound 0.1 µM, first compound 3.16 µM", "result": 48.3, "unit": "%"}, {"measurement": "viability, T/C", "setting": "second compound 0.1 µM, first compound 10 µM", "result": 23.4, "unit": "%"}, {"measurement": "viability, T/C", "setting": "second compound 0.316 µM, first compound 0.0316 µM", "result": 76.8, "unit": "%"}, {"measurement": "viability, T/C", "setting": "second compound 0.316 µM, first compound 0.1 µM", "result": 50.7, "unit": "%"}, {"measurement": "viability, T/C", "setting": "second compound 0.316 µM, first compound 0.316 µM", "result": 41.8, "unit": "%"}, {"measurement": "viability, T/C", "setting": "second compound 0.316 µM, first compound 1 µM", "result": 49.8, "unit": "%"}, {"measurement": "viability, T/C", "setting": "second compound 0.316 µM, first compound 3.16 µM", "result": 43.5, "unit": "%"}, {"measurement": "viability, T/C", "setting": "second compound 0.316 µM, first compound 10 µM", "result": 19.4, "unit": "%"}, {"measurement": "viability, T/C", "setting": "second compound 1 µM, first compound 0.0316 µM", "result": 79, "unit": "%"}, {"measurement": "viability, T/C", "setting": "second compound 1 µM, first compound 0.1 µM", "result": 57.6, "unit": "%"}, {"measurement": "viability, T/C", "setting": "second compound 1 µM, first compound 0.316 µM", "result": 46.2, "unit": "%"}, {"measurement": "viability, T/C", "setting": "second compound 1 µM, first compound 1 µM", "result": 46.8, "unit": "%"}, {"measurement": "viability, T/C", "setting": "second compound 1 µM, first compound 3.16 µM", "result": 48.3, "unit": "%"}, {"measurement": "viability, T/C", "setting": "second compound 1 µM, first compound 10 µM", "result": 18.1, "unit": "%"}, {"measurement": "viability, T/C", "setting": "second compound 3.16 µM, first compound 0.0316 µM", "result": 88.7, "unit": "%"}, {"measurement": "viability, T/C", "setting": "second compound 3.16 µM, first compound 0.1 µM", "result": 54.5, "unit": "%"}, {"measurement": "viability, T/C", "setting": "second compound 3.16 µM, first compound 0.316 µM", "result": 49.4, "unit": "%"}, {"measurement": "viability, T/C", "setting": "second compound 3.16 µM, first compound 1 µM", "result": 41.5, "unit": "%"}, {"measurement": "viability, T/C", "setting": "second compound 3.16 µM, first compound 3.16 µM", "result": 46.7, "unit": "%"}, {"measurement": "viability, T/C", "setting": "second compound 3.16 µM, first compound 10 µM", "result": 16.5, "unit": "%"}, {"measurement": "viability, T/C", "setting": "second compound 10 µM, first compound 0.0316 µM", "result": 37.5, "unit": "%"}, {"measurement": "viability, T/C", "setting": "second compound 10 µM, first compound 0.1 µM", "result": 24.6, "unit": "%"}, {"measurement": "viability, T/C", "setting": "second compound 10 µM, first compound 0.316 µM", "result": 26.9, "unit": "%"}, {"measurement": "viability, T/C", "setting": "second compound 10 µM, first compound 1 µM", "result": 27.1, "unit": "%"}, {"measurement": "viability, T/C", "setting": "second compound 10 µM, first compound 3.16 µM", "result": 35.8, "unit": "%"}, {"measurement": "viability, T/C", "setting": "second compound 10 µM, first compound 10 µM", "result": 2.8, "unit": "%"}]}]}
